# “And” between values parts separate entries of the source, which are not always exact repeats. Equal values may be shown once. “Also recorded” adds a separate entry of the source.
# How the values were obtained:
# [1] = electroretinogram (ERG) after ascorbic acid administration; assay type: in vivo, Rats
# Description: The effect of pH neutralized and non-neutralized ascorbic acid administered topically to eyes at various concentrations was determined. Rats were subject to induced corneal neovascularization as previously described and administered pH neutralized and non-neutralized ascorbic acid and saline (control) at the same concentrations as previously described. An electroretinogram (ERG) was performed to evaluate the eye's electrical responses to a flash of light using an electrode placed on the surface of the eye (e.g., cornea) as known to one skilled in the art.
# [2] = test system: corneal neovascularization; test: silver nitrate cauterization induced corneal neovascularization, topical treatment; assay type: in vivo, male Long Evans pigmented rats; settings: for Degree of Corneal Neovascularization, OD / Degree of Corneal Neovascularization, OS / mean inhibition of neovascularization / mean percent of neovascularization relative to total corneal area: topical twice a day for seven days; for Degree of Corneal Neovascularization, OD / Degree of Corneal Neovascularization, OS: individual subjects
# Description: Neovascularization was induced in all eyes using silver nitrate cauterization. The animals were first anesthetized by intraperitoneal injection of a mixture of ketamine hydrochloride (25 mg/kg) with xylazine hydrochloride (5 mg/kg). The cornea was then anesthetized by a drop of 0.5% proparacaine hydrochloride and allowed to dry. One cornea of each animal was cauterized by pressing an applicator stick (diameter of 1.8 mm) coated with 75% silver nitrate/25% potassium nitrate (Arzol Chemical Co., Keen, N.H.) to the central cornea for ten seconds (using a stopwatch) under the operating microscope. Excess silver nitrate was removed by rinsing the eyes with 5 ml balanced salt solution. To increase the reproducibility of the injuries, one investigator cauterized all animals. Following cauterization, the animals were randomly divided into six groups to eliminate any potential bias in the degree of burns within the different groups. Two drops of each drug were applied topically to each cornea immediately following cauterization; treatments were administered two times per day for seven days.
# Group 1 (number of animals (n)=8) received 100 mg/ml pH non-neutralized ascorbic acid. All remaining experimental groups received ascorbic acid neutralized to about pH 7 as previously described in the following concentrations: Group 2 (n=8) received 100 mg/ml (10%^w/v) neutralized ascorbic acid; Group 3 (n=8) received 50 mg/ml (5%^w/v) neutralized ascorbic acid; Group 4 (n=8) received 10 mg/ml (1%^w/v) neutralized ascorbic acid; Group 5 (n=8) received 5 mg/ml neutralized ascorbic acid (0.5%^w/v); Group 6 (n=8) received 1 mg/ml neutralized ascorbic acid (0.1%^w/v); Group 7 (n=8) received 500 μg/ml neutralized ascorbic acid (0.05%^w/v); Group 8 (n=8) received 250 μg/ml neutralized ascorbic acid (0.025%^w/v). Group 9 (n=8) received two drops of saline and served as the control. All concentrations of ascorbic acid were titrated with saline.
# The presence of new vessels (neovascularization) and the extent of new vessel formation was assessed by slit lamp photography and in some embodiments, by histology. Inhibition of vessel proliferation was evaluated by measuring vessel progression from the outer cornea (corneal limbus) into the cornea. As previously described, it will be appreciated that any reduction of new vessel proliferation and/or regression of existing vessels is therapeutic, and that complete inhibition and/or regression is not required, and also that reduction includes regression of existing vessels.
# All animals were anesthetized as described above and their corneas evaluated by slit-lamp microscopy on the third and sixth days. Corneal photographs were taken with ×25 magnification using a camera attached to the slit-lamp microscope (Topcon SL-7E, Tokyo Japan) on the seventh day. Neovascularization was evaluated by an examiner who was blinded as to the treatment groups to minimize the observer bias.
# Corneal neovascularization was assessed by scanning (Cano scan 9900F, Canon, Tokyo Japan) the slit lamp photographs into high resolution digital images. The corneal surface covered with neovascular vessels was measured on the photographs as the percentage of the total area of the cornea. The percentage area of corneal neovascularization was determined by outlining the areas with corneal vessels and comparing these to the total corneal surface using image j software (Wayne Rasband at the Research Services Branch,-National Institute of Mental Health, Bethesda Md.). The area of neovascularization was measured in terms of pixels and its ratio to the entire corneal area was determined as the percentage of corneal neovascularization. The extent of the scar was also evaluated by calculating the percentage of the corneal surface that was covered by the scar. A drawing of corneal blood vessels was made to compare with digital photos and ensure that no vascular area was omitted during calculation of percent area. […]
# [3] = 100 mg/ml, listed as pH neutralized ascorbic acid
# [4] = 100 mg/ml, mean ± standard deviation, n = 8
structure (smiles),measurement,setting,value
"O=C1O[C@H]([C@@H](O)CO)C(O)=C1O [Ascorbic Acid pH Neutralized, ascorbic acid]",decrease in ERG,"[1]; 1 mg/ml, n=6",no significant decrease in ERG
same,decrease in ERG,"[1]; 10 mg/ml, n=6",no significant decrease in ERG
same,decrease in ERG,"[1]; 100 mg/ml, two eyes, listed as pH neutralized ascorbic acid",100%
same,"ocular findings (retinal detachment, cataracts, vitreous haze, retinal edema)",[1]; [3],neither cataracts nor retinal detachment; also recorded: vitreous haze and retinal edema
same,"Degree of Corneal Neovascularization, OD",[2]; 250 μg (250 μg/ml),68% and 69% and 70% and 61%
same,"Degree of Corneal Neovascularization, OS",[2]; 250 μg (250 μg/ml),65% and 63% and 66% and 48%
same,mean inhibition of neovascularization,[2]; 250 μg/ml,about 33%
same,mean percent of neovascularization relative to total corneal area,"[2]; 250 μg/ml, FIG. 2",about 67%
same,mean inhibition of neovascularization,"[2]; 250 μg/ml, listed as neutralized ascorbic acid",differences were not significant
same,"Degree of Corneal Neovascularization, OD",[2]; 500 μg (500 μg/ml),54% and 69% and 70% and 61%
same,"Degree of Corneal Neovascularization, OS",[2]; 500 μg (500 μg/ml),50% and 63% and 66% and 48%
same,mean inhibition of neovascularization,[2]; 500 μg/ml,about 40%
same,mean percent of neovascularization relative to total corneal area,"[2]; 500 μg/ml, mean ± standard deviation, n = 8",mean = 60.1 ± 8.5% (n = 8)
same,mean percent of neovascularization relative to total corneal area,"[2]; 500 μg/ml, mean ± standard deviation, n = 8, listed as ascorbic acid pH neutralized",about 60%
same,mean percent of neovascularization relative to total corneal area,"[2]; 500 μg/ml, mean ± standard deviation, n = 8, listed as neutralized ascorbic acid",60.1%
same,mean inhibition of neovascularization,"[2]; 500 μg/ml, listed as neutralized ascorbic acid",39.9%
same,"Degree of Corneal Neovascularization, OD",[2]; 1 mg (1 mg/ml),49% and 15% and 48% and 5%
same,"Degree of Corneal Neovascularization, OS",[2]; 1 mg (1 mg/ml),47% and 27% and 29% and 17%
same,mean inhibition of neovascularization,[2]; 1 mg/ml,about 69%
same,mean percent of neovascularization relative to total corneal area,"[2]; 1 mg/ml, mean ± standard deviation",mean = 29.6 ± 16.9%
same,mean percent of neovascularization relative to total corneal area,"[2]; 1 mg/ml, mean ± standard deviation, listed as ascorbic acid pH neutralized",about 31%
same,mean inhibition of neovascularization,"[2]; 1 mg/ml, listed as neutralized ascorbic acid",significant inhibition compared to control eyes
same,"Degree of Corneal Neovascularization, OD",[2]; 5 mg (5 mg/ml),20% and 35% and 0% and 60%
same,"Degree of Corneal Neovascularization, OS",[2]; 5 mg (5 mg/ml),60% and 26% and 30% and 0%
same,mean inhibition of neovascularization,[2]; 5 mg/ml,about 70%
same,mean percent of neovascularization relative to total corneal area,"[2]; 5 mg/ml, mean ± standard deviation, n = 8",mean = 28.9 ± 23.1% (n = 8)
same,mean percent of neovascularization relative to total corneal area,"[2]; 5 mg/ml, mean ± standard deviation, n = 8, listed as ascorbic acid pH neutralized",about 30%
same,mean inhibition of neovascularization,"[2]; 5 mg/ml, listed as neutralized ascorbic acid",significant inhibition compared to control eyes
same,"Degree of Corneal Neovascularization, OD",[2]; 10 mg (10 mg/ml),0% and 31% and 20% and 22%
same,"Degree of Corneal Neovascularization, OS",[2]; 10 mg (10 mg/ml),0% and 27% and 15% and 26%
same,mean inhibition of neovascularization,[2]; 10 mg/ml,about 81%
same,mean percent of neovascularization relative to total corneal area,"[2]; 10 mg/ml, mean ± standard deviation, n = 8",mean = 17.6 ± 11.9% (n = 8)
same,mean percent of neovascularization relative to total corneal area,"[2]; 10 mg/ml, mean ± standard deviation, n = 8, listed as ascorbic acid pH neutralized",about 19%
same,mean inhibition of neovascularization,"[2]; 10 mg/ml, listed as neutralized ascorbic acid",significant inhibition compared to control eyes
same,"Degree of Corneal Neovascularization, OD",[2]; 50 mg (50 mg/ml),10% and 15% and 32% and 3%
same,"Degree of Corneal Neovascularization, OS",[2]; 50 mg (50 mg/ml),5% and 35% and 22% and 0%
same,mean inhibition of neovascularization,[2]; 50 mg/ml,about 83.5%
same,mean percent of neovascularization relative to total corneal area,"[2]; 50 mg/ml, mean ± standard deviation, n = 8",mean = 15.2 ± 13.3% (n = 8)
same,mean percent of neovascularization relative to total corneal area,"[2]; 50 mg/ml, mean ± standard deviation, n = 8, listed as ascorbic acid pH neutralized",about 16.5%
same,mean inhibition of neovascularization,"[2]; 50 mg/ml, listed as neutralized ascorbic acid",significant inhibition compared to control eyes
same,"Degree of Corneal Neovascularization, OD",[2]; 100 mg (100 mg/ml),0% and 31% and 15% and 28%
same,"Degree of Corneal Neovascularization, OS",[2]; 100 mg (100 mg/ml),54% and 5% and 3% and 0%
same,mean inhibition of neovascularization,[2]; 100 mg/ml,about 82%
same,mean percent of neovascularization relative to total corneal area,[2]; [4],AVE = 17.0 ± 19.3% (n = 8)
same,mean percent of neovascularization relative to total corneal area,"[2]; 100 mg/ml, mean ± standard deviation, n = 8, listed as ascorbic acid pH neutralized",about 18%
same,mean percent of neovascularization relative to total corneal area,"[2]; 100 mg/ml, mean ± standard deviation, n = 8, listed as pH neutralized ascorbic acid",17.0%
same,mean inhibition of neovascularization,[2]; [3],83.0%
same,inhibition of corneal neovascularization,[2]; concentrations ranging from 100 mg/ml to 500 μg/ml,significantly inhibited corneal neovascularization
"O=C1O[C@H]([C@@H](O)CO)C(O)=C1O [Ascorbic Acid Non pH Neutralized, ascorbic acid, reference compound]",decrease in ERG,"[1]; 1 mg/ml, n=6",no significant decrease in ERG
same,decrease in ERG,"[1]; 10 mg/ml, n=6",no significant decrease in ERG
same,decrease in ERG,"[1]; 100 mg/ml, two eyes, listed as non-pH neutralized ascorbic acid",60% and 70%
same,"ocular findings (retinal detachment, cataracts, vitreous haze, retinal edema)","[1]; 100 mg/ml, listed as non-pH neutralized ascorbic acid",partial retinal detachment
same,"Degree of Corneal Neovascularization, OD",[2]; 100 mg (100 mg/ml),10% and 25% and 20% and 0%
same,"Degree of Corneal Neovascularization, OS",[2]; 100 mg (100 mg/ml),33% and 30% and 22% and 0%
same,mean inhibition of neovascularization,[2]; 100 mg/ml,about 81%
same,mean percent of neovascularization relative to total corneal area,[2]; [4],AVE = 17.5 ± 12.8% (n = 8)
same,mean percent of neovascularization relative to total corneal area,"[2]; 100 mg/ml, mean ± standard deviation, n = 8, listed as ascorbic acid non-pH neutralized",about 19%
same,mean percent of neovascularization relative to total corneal area,"[2]; 100 mg/ml, mean ± standard deviation, n = 8, listed as non-neutralized ascorbic acid",17.5%
same,mean inhibition of neovascularization,"[2]; 100 mg/ml, listed as non-neutralized ascorbic acid",82.5%
